As usually defined, the MIC is the lowest concentration that inhibits growth of the organism.

Experimental findings from patent US20230233559A1, “COMBINATION OF ZIDOVUDINE AND FLUOROQUINOLONE ANTIBIOTIC” (HELPERBY THERAPEUTICS LIMITED, priority 2019, published 2023) are described below.

What all share (format): cell-based
Details in all cases: fluoroquinolone alone

In test [1] the test system is BAA2469 NDM-1 Escherichia coli. The test can be described thus: Chequerboard MIC, log phase BAA2469. The procedure: (§1) The chequerboard method used in Example 1 followed the protocols detailed in Antimicrob Chemo (2013) 68, 374-384. Zidovudine and ciprofloxacin were obtained from commercially available sources. The bacteria used were BAA2469 NDM-1 Escherichia coli, BAA2470 NDM-1 Klebsiella pneumoniae, BAA2471 NDM-1 Escherichia coli, BAA2472 NDM-1 Klebsiella pneumoniae, and NCTC13443 NDM-1 Klebsiella pneumoniae. All strains were obtained from a commercial source and log phase growth of the bacteria was carried out using methods known in the art.
(§2) The effects of the combination of the present invention were examined by calculating the fractional inhibitory concentration index (FICI) of each combination, as follows:
(§3) (MIC of drug A, tested in combination)/(MIC of drug A, tested alone)+(MIC of drug B, tested in combination)/(MIC of drug B, tested alone).
(§4) The interaction of the combination was defined as showing synergy if the FICI was ≤0.5, no interaction if the FICI was >0.5 but <4.0 and antagonism if the FICI was >4.0.
(§5) The method and bacterial strains were identical to Example 1. Zidovudine and levofloxacin were obtained from commercially available sources. The effects of the combination of the present invention were examined by calculating the MIC for each drug alone and in combination in the same manner as Example 1.
(§6) The method and bacterial strains were identical to Example 1. Zidovudine and moxifloxacin were obtained from commercially available sources. The effects of the combination of the present invention were examined by calculating the MIC for each drug alone and in combination in the same manner as Example 1.

The test system of test [2] is BAA2470 NDM-1 Klebsiella pneumoniae. The test can be described thus: Chequerboard MIC, log phase BAA2470. The procedure:
as §1, §2, §3, §4, §5, §6

Test [3] concerns BAA2471 NDM-1 Escherichia coli. The test can be described thus: Chequerboard MIC, log phase BAA2471. The procedure:
as §1, §2, §3, §4, §5, §6

The test system of test [4] is BAA2472 NDM-1 Klebsiella pneumoniae. Nature of the test: Chequerboard MIC, log phase BAA2472. The procedure:
as §1, §2, §3, §4, §5, §6

For test [5], the system named is NCTC13443 NDM-1 Klebsiella pneumoniae. Nature of the test: Chequerboard MIC, log phase NCTC13443. As for the experimental part:
as §1, §2, §3, §4, §5, §6

`O=C(O)c1cn(C2CC2)c2cc(N3CCNCC3)c(F)cc2c1=O` [Ciprofloxacin, 1-cyclopropyl-6-fluoro-1,4-dihydro-4-oxo-7-(1-piperazinyl)-3-quinolinecarboxylic acid]: the MIC in test [1] was 64 µg/mL; in test [2], 8 µg/mL; in test [3], greater than 64 µg/mL; in test [4] it was 64 µg/mL; in test [5] it was 64 µg/mL.
Consider `C[C@H]1COc2c(N3CCN(C)CC3)c(F)cc3c(=O)c(C(=O)O)cn1c23` [Levofloxacin, (2S)-7-fluoro-2-methyl-6-(4-methylpiperazin-1-yl)-10-oxo-4-oxa-1-azatricyclo[7.3.1.0^5,13]trideca-5(13),6,8,11-tetraene-11-carboxylic acid], for which the MIC in test [1] was found to be 8 µg/mL; in test [2], 8 µg/mL; in test [3], 32 µg/mL; in test [4], 32 µg/mL; in test [5], 32 µg/mL.
Take `COc1c(N2C[C@@H]3CCCN[C@@H]3C2)c(F)cc2c(=O)c(C(=O)O)cn(C3CC3)c12` [Moxifloxacin, 7-[(4aS,7aS)-1,2,3,4,4a,5,7,7a-octahydropyrrolo[3,4-b]pyridin-6-yl]-1-cyclopropyl-6-fluoro-8-methoxy-4-oxoquinoline-3-carboxylic acid]: the MIC in test [1] came out at 16 µg/mL; in test [2], 32 µg/mL; in test [3], 128 µg/mL; in test [4] it was 128 µg/mL; in test [5], 128 µg/mL.
